From US20260138990A1, “TRICYCLIC FUSED IMIDAZOLE COMPOUNDS AS CD38 MODULATORS AND USES THEREOF” (AEOVIAN PHARMACEUTICALS, INC., priority 2023, published 2026)
pIC50: −log10 of the molar value.

Assays:
human CD38 = biological target: T1, human CD38 (Homo sapiens, UniProt P28907); assay: NAD+ cyclase activity assay with human recombinant CD38 protein (ε-NAD fluorescence); format: biochemical; conditions: 1.9 nM human CD38, substrate ε-NAD, 30 min preincubation, fluorescence 300/410 nm
T1 construct: purchased Bio-Techne GmbH AVI2404
T1 sequence (P28907 1-300): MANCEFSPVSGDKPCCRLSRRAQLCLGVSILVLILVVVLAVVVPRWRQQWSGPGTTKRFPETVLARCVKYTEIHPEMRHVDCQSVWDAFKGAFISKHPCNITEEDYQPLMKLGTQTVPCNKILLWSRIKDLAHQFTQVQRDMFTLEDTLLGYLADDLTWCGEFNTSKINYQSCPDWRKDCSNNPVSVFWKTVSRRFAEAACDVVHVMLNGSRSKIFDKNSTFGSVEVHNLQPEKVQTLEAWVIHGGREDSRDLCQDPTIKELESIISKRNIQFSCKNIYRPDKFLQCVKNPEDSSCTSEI
Procedure, shortened: (§1)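 Twelve-point threefold compound dilutions were given 30 min at room temperature with 0.6 nM mouse or 1.9 nM human CD38 before […] ε-NAD was added (pH 7.5 HEPES/sucrose/Tween buffer). The rate came from the linear-phase slope of ex 300/em 410 nm fluorescence against vehicle and no-CD38 controls.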

mouse CD38 = biological target: T2, mouse CD38 (Mus musculus, UniProt P56528); assay: NAD+ cyclase activity assay with mouse recombinant CD38 protein (ε-NAD fluorescence); format: biochemical; conditions: 0.6 nM mouse CD38, substrate ε-NAD, 30 min preincubation, fluorescence 300/410 nm
T2 construct: purchased Bio-Techne GmbH 4947-AC
T2 sequence (P56528 1-304): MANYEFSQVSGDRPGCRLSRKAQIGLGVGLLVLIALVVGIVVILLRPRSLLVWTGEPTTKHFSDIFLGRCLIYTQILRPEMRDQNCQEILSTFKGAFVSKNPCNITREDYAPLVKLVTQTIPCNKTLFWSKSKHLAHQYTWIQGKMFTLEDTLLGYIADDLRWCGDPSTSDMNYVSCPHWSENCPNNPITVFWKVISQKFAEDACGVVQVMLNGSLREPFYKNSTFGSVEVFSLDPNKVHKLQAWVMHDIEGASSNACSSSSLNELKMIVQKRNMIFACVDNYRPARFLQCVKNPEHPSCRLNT
Procedure, shortened: as §1

Row | Structure (SMILES) | pIC50 (human CD38) | pIC50 (mouse CD38)
1 | O=C(N[C@H]1CC[C@@H](OCCC(F)(F)F)CC1)c1ccc2c(c1)-c1cncn1CCO2 [Compound 89A, N-((1s,4s)-4-(3,3,3-Trifluoropropoxy)cyclohexyl)-5,6-dihydrobenzo[f]imidazo[1,5-d][1,4]oxazepine-10-carboxamide] | 6.00 to 7.00 | < 7.00
2 | COCCO[C@H]1CC[C@H](NC(=O)c2cc(F)c3c(c2F)-c2cncn2CCO3)CC1 [Compound 91A, 8,11-Difluoro-N-((1r,4r)-4-(2-methoxyethoxy)cyclohexyl)-5,6-dihydrobenzo[f]imidazo[1,5-d][1,4]oxazepine-10-carboxamide] | 7.00 to 7.52 | 8.00 to 9.00
3 | COCCO[C@H]1CC[C@H](NC(=O)c2cc(Cl)c3c(c2)-c2cncn2CCO3)CC1 [Compound 94A, 8-Chloro-N-((1r,4r)-4-(2-methoxyethoxy)cyclohexyl)-5,6-dihydrobenzo[f]imidazo[1,5-d][1,4]oxazepine-10-carboxamide] | > 7.52 | > 9.00
4 | COCCO[C@H]1CC[C@H](NC(=O)c2cc3c(c(F)c2F)OCCn2cncc2-3)CC1 [Compound 95A, 8,9-Difluoro-N-((1r,4r)-4-(2-methoxyethoxy)cyclohexyl)-5,6-dihydrobenzo[f]imidazo[1,5-d][1,4]oxazepine-10-carboxamide] | > 7.52 | 8.00 to 9.00
5 | O=C(Nc1cnc2c(c1)OCCO2)c1cc(F)c2c(c1)-c1cncn1CCO2 [Compound 97A, N-(2,3-Dihydro-[1,4]dioxino[2,3-b]pyridin-7-yl)-8-fluoro-5,6-dihydrobenzo[f]imidazo[1,5-d][1,4]oxazepine-10-carboxamide] | > 7.52 | > 9.00
6 | CN1CCOc2cc(NC(=O)c3ccc4c(c3)-c3cncn3CCO4)cnc21 [Compound 98A, N-(4-Methyl-3,4-dihydro-2H-pyrido[3,2-b][1,4]oxazin-7-yl)-5,6-dihydrobenzo[f]imidazo[1,5-d][1,4]oxazepine-10-carboxamide] | > 7.52 | 8.00 to 9.00
7 | O=C(Nc1cnc(N2CC(F)(F)C2)nc1)c1ccc2c(c1)-c1cncn1CCO2 [Compound 99A, N-(2-(3,3-Difluoroazetidin-1-yl)pyrimidin-5-yl)-5,6-dihydrobenzo[f]imidazo[1,5-d][1,4]oxazepine-10-carboxamide] | > 7.52 | 7.00 to 8.00
8 | O=C(Nc1cnc(NCC(F)(F)F)nc1)c1ccc2c(c1)-c1cncn1CCO2 [Compound 100A, N-(2-((2,2,2-Trifluoroethyl)amino)pyrimidin-5-yl)-5,6-dihydrobenzo[f]imidazo[1,5-d][1,4]oxazepine-10-carboxamide] | > 7.52 | 8.00 to 9.00
9 | CN1CCOc2ncc(NC(=O)c3ccc4c(c3)-c3cncn3CCO4)cc21 [Compound 101A, N-(1-Methyl-2,3-dihydro-1H-pyrido[2,3-b][1,4]oxazin-7-yl)-5,6-dihydrobenzo[f]imidazo[1,5-d][1,4]oxazepine-10-carboxamide] | > 7.52 | > 9.00
10 | O=C(Nc1cnc(OCCCF)nc1)c1ccc2c(c1)-c1cncn1CCO2 [Compound 102A, N-(2-(3-Fluoropropoxy)pyrimidin-5-yl)-5,6-dihydrobenzo[f]imidazo[1,5-d][1,4]oxazepine-10-carboxamide] | > 7.52 | 8.00 to 9.00
11 | O=C(Nc1cnc(OCCC(F)F)nc1)c1ccc2c(c1)-c1cncn1CCO2 [Compound 103A, N-(2-(3,3-Difluoropropoxy)pyrimidin-5-yl)-5,6-dihydrobenzo[f]imidazo[1,5-d][1,4]oxazepine-10-carboxamide] | > 7.52 | 8.00 to 9.00
12 | O=C(Nc1cnc(OCCC(F)(F)F)nc1)c1ccc2c(c1)-c1cncn1CCO2 [Compound 104A, N-(2-(3,3,3-Trifluoropropoxy)pyrimidin-5-yl)-5,6-dihydrobenzo[f]imidazo[1,5-d][1,4]oxazepine-10-carboxamide] | > 7.52 | 8.00 to 9.00
13 | CS(=O)(=O)CCN[C@H]1CC[C@H](NC(=O)c2ccc3c(c2)-c2cncn2CCO3)CC1 [Compound 106A, N-((1r,4r)-4-((2-(Methylsulfonyl)ethyl)amino)cyclohexyl)-5,6-dihydrobenzo[f]imidazo[1,5-d][1,4]oxazepine-10-carboxamide] | 7.00 to 7.52 | 8.00 to 9.00
14 | O=C(N[C@H]1CC[C@H](N2CC(C(F)(F)F)C2)CC1)c1ccc2c(c1)-c1cncn1CCO2 [Compound 107A, N-((1r,4r)-4-(3-(Trifluoromethyl)azetidin-1-yl)cyclohexyl)-5,6-dihydrobenzo[f]imidazo[1,5-d][1,4]oxazepine-10-carboxamide] | 7.00 to 7.52 | 8.00 to 9.00
15 | O=C(Nc1cnc(OCC(F)(F)F)nc1)c1ccc2c(c1)-c1cncn1CCO2 [Compound 109A, N-(2-(2,2,2-Trifluoroethoxy)pyrimidin-5-yl)-5,6-dihydrobenzo[f]imidazo[1,5-d][1,4]oxazepine-10-carboxamide] | > 7.52 | 8.00 to 9.00
16 | CC(C)(O)[C@H]1CC[C@H](NC(=O)c2cc(F)c3c(c2)-c2cncn2CCO3)CC1 [Compound 114A, 8-Fluoro-N-((1r,4r)-4-(2-hydroxypropan-2-yl)cyclohexyl)-5,6-dihydrobenzo[f]imidazo[1,5-d][1,4]oxazepine-10-carboxamide] | > 7.52 | > 9.00
17 | O=C(N[C@H]1CC[C@H](NCC(F)(F)F)CC1)c1cc(F)c2c(c1)-c1cncn1CCO2 [Compound 115A, 8-Fluoro-N-((1r,4r)-4-((2,2,2-trifluoroethyl)amino)cyclohexyl)-5,6-dihydrobenzo[f]imidazo[1,5-d][1,4]oxazepine-10-carboxamide] | > 7.52 | > 9.00

The remaining lines, values ahead:

Row | pIC50 (human CD38) | pIC50 (mouse CD38) | Structure (SMILES)
18 | > 7.52 | > 9.00 | O=C(N[C@H]1CC[C@H](OCCC(F)(F)F)CC1)c1ccc2c(c1)-c1cncn1CCO2 [Compound 90A, N-((1r,4r)-4-(3,3,3-Trifluoropropoxy)cyclohexyl)-5,6-dihydrobenzo[f]imidazo[1,5-d][1,4]oxazepine-10-carboxamide]
19 | > 7.52 | 8.00 to 9.00 | O=C(N[C@@H]1CCC(F)(F)C1)c1ccc2c(c1)-c1cncn1CCO2 [Compound 92A, (R)—N-(3,3-Difluorocyclopentyl)-5,6-dihydrobenzo[f]imidazo[1,5-d][1,4]oxazepine-10-carboxamide]
20 | > 7.52 | 8.00 to 9.00 | O=C(N[C@H]1CCC(F)(F)C1)c1ccc2c(c1)-c1cncn1CCO2 [Compound 93A, (S)—N-(3,3-Difluorocyclopentyl)-5,6-dihydrobenzo[f]imidazo[1,5-d][1,4]oxazepine-10-carboxamide]
21 | > 7.52 | 8.00 to 9.00 | O=C(NC1CCCC(F)(F)C1)c1ccc2c(c1)-c1cncn1CCO2 (stereo not drawn) [Compound 96A, N-(3,3-Difluorocyclohexyl)-5,6-dihydrobenzo[f]imidazo[1,5-d][1,4]oxazepine-10-carboxamide]
22 | 7.00 to 7.52 | 8.00 to 9.00 | O=C(N[C@H]1CC[C@H](CN2CC(F)(F)C2)CC1)c1ccc2c(c1)-c1cncn1CCO2 [Compound 105A, N-((1r,4r)-4-((3,3-Difluoroazetidin-1-yl)methyl)cyclohexyl)-5,6-dihydrobenzo[f]imidazo[1,5-d][1,4]oxazepine-10-carboxamide]
23 | > 7.52 | > 9.00 | O=C(N[C@@H]1CCC(F)(F)C1)c1cc(F)c2c(c1)-c1cncn1CCO2 [Compound 108A, (R)—N-(3,3-Difluorocyclopentyl)-8-fluoro-5,6-dihydrobenzo[f]imidazo[1,5-d][1,4]oxazepine-10-carboxamide]
24 | 7.00 to 7.52 | 8.00 to 9.00 | O=C(N[C@H]1CC[C@H](NCCC(F)(F)F)CC1)c1ccc2c(c1)-c1cncn1CCO2 [Compound 110A, N-((1r,4r)-4-((3,3,3-Trifluoropropyl)amino)cyclohexyl)-5,6-dihydrobenzo[f]imidazo[1,5-d][1,4]oxazepine-10-carboxamide]
25 | 6.00 to 7.00 | < 7.00 | O=C(N[C@H]1CC[C@@H](NCCC(F)(F)F)CC1)c1ccc2c(c1)-c1cncn1CCO2 [Compound 111A, N-((1s,4s)-4-((3,3,3-Trifluoropropyl)amino)cyclohexyl)-5,6-dihydrobenzo[f]imidazo[1,5-d][1,4]oxazepine-10-carboxamide]
26 | > 7.52 | > 9.00 | O=C(N[C@@H]1CCC(F)(F)C1)c1cc(Cl)c2c(c1)-c1cncn1CCO2 [Compound 112A, (R)-8-Chloro-N-(3,3-difluorocyclopentyl)-5,6-dihydrobenzo[f]imidazo[1,5-d][1,4]oxazepine-10-carboxamide]
27 | > 7.52 | 8.00 to 9.00 | O=C(N[C@H]1CC[C@H](N2CC(C(F)F)C2)CC1)c1ccc2c(c1)-c1cncn1CCO2 [Compound 113A, N-((1r,4r)-4-(3-(Difluoromethyl)azetidin-1-yl)cyclohexyl)-5,6-dihydrobenzo[f]imidazo[1,5-d][1,4]oxazepine-10-carboxamide]
